Columns and labels:
[1] = tested on: post-operative pain in mice; assay: Post-operative pain (plantar incision); assay type: in vivo; conditions: 24 h after incision
Experimental: For behavioural assessment adult male C57BL/6J mice aged 6-8 weeks were used. Animals were housed in groups of 3 or 4 per cage, under 12 h light-dark cycles and had standard rodent chow and water ad libitum.
Mechanical allodynia was assessed using an electronic von Frey apparatus (MouseMet Electronic von Frey, TopCat Metrology Ltd, United Kingdom). Mice were habituated in individual mouse runs for at least 5 min prior to testing. A soft-tipped 0.3 mm diameter flat-ended polypropylene probe was applied to the plantar surface of each hind paw with pressured applied at a force rise rate of ˜1 g/s. The force that elicited paw withdrawal was calculated using the MouseMet Software. The paw withdrawal force (PWF) was determined from the average of three tests, separated by at least 2 min.
To induce post-operative (post-surgical) pain, the plantar skin of the hind paw of mice was incised under light isoflurane (3%) anaesthesia. Briefly, a 7 mm longitudinal incision was made through the skin and fascia 3 mm from the proximal edge of the heel using a sterile surgical scalpel (#11). The underlying plantaris muscle was elevated and also incised longitudinally. The wound was closed with two silk sutures. Mechanical allodynia was assessed 24 h after the incisional injury.

[2] = Stability of Pnc1a in solutions (RP-HPLC/MS); assay type: physicochemical; conditions: room temperature
hNav1.6 = molecular target: T1, hNav1.6 (Homo sapiens, UniProt Q9UQD0); assay: Automated patch clamping (QPatch-16), hNav1.6; assay type: cell-based; conditions: mean±SEM
T1 construct: host or cells: HEK293
Experimental: HEK293 cells stably expressing hNav1.1-1.7 or CHO cells stably expressing hNav1.8 (as described in Example 3 above) were cultured in a T-175 flask in selection antibiotic-free media at 37° C. Cells were grown to 70-80% confluence and harvested using Detachin (Bio-Scientific, NSW, Australia) at 37° C. for 2 min. Dissociated cells were then resuspended in Ex-Cell ACF CHO Medium with HEPES (25 mM; Sigma-Aldrich Co.) and allowed to recover on the QStirrer for 30 min.
The extracellular solution contained in mM: NaCl 145, KCl 4, CaCl2 2, MgCl2 1, HEPES 10 and glucose 10. The pH was adjusted to 7.4 with NaOH and osmolarity was adjusted with sucrose to 305 mOsm. The intracellular solution contained in mM: CsF 140, ethylene glycol tetraacetic acid (EGTA)/CsOH 1/5, HEPES 10 and NaCl 10. The pH was adjusted to 7.3 with CsOH and osmolarity adjusted with sucrose to 320 mOsm. […]
The current-voltage (IV) curve was constructed with a holding potential of −80 mV followed by a pre-pulse of −100 mV for 50 ms and a series of 50 ms step pulses that ranged from −80 to 50 mV in 5 mV increments before returning to a holding potential of −80 mV. Voltage-dependence of activation was determined as normalized Nav conductance (GNa) using: GNa=INa/(Vmemb−Vrev), where Vmemb is the membrane potential and Vrev is the reversal potential for each cell. […]

hERG = molecular target: T2, hERG (Homo sapiens, UniProt Q12809); assay: hERG automated patch clamping in CHO cells; assay type: cell-based; conditions: 100 nM
T2 construct: host or cells: CHO
Experimental: CHO cells stably expressing hERG (B'SYS GmbH, Witterswil, Switzerland) were cultured in Ham's F-12 medium containing 10% v/v FBS and selection antibiotics as recommended by the manufacturer. Cells were cultured and prepared as described in Example 4.
The extracellular solution contained in mM: NaCl 145, KCl 4, MgCl2 1, CaCl2 2, HEPES 10 and glucose 10. The pH was adjusted to 7.4 and osmolarity was 305 mOsm. The intracellular solution contained in mM; KCl 120, HEPES 10, CaCl2 5, MgCl2 1.7, K2ATP 4, EGTA 10.
The pH was adjusted to 7.3 and osmolarity was 292 mOsm.
Whole-cell patch-clamp experiments were performed on a QPatch-16 automated electrophysiology platform (as described in Example 4). hERG currents were elicited by a depolarization step of +40 mV from a holding potential of −80 mV for 5 s. hERG tail currents were elicited upon partial repolarization to −50 mV for 5 s. The interval of voltages pulses was 15 s.

T2 sequence (Q12809 whole entry): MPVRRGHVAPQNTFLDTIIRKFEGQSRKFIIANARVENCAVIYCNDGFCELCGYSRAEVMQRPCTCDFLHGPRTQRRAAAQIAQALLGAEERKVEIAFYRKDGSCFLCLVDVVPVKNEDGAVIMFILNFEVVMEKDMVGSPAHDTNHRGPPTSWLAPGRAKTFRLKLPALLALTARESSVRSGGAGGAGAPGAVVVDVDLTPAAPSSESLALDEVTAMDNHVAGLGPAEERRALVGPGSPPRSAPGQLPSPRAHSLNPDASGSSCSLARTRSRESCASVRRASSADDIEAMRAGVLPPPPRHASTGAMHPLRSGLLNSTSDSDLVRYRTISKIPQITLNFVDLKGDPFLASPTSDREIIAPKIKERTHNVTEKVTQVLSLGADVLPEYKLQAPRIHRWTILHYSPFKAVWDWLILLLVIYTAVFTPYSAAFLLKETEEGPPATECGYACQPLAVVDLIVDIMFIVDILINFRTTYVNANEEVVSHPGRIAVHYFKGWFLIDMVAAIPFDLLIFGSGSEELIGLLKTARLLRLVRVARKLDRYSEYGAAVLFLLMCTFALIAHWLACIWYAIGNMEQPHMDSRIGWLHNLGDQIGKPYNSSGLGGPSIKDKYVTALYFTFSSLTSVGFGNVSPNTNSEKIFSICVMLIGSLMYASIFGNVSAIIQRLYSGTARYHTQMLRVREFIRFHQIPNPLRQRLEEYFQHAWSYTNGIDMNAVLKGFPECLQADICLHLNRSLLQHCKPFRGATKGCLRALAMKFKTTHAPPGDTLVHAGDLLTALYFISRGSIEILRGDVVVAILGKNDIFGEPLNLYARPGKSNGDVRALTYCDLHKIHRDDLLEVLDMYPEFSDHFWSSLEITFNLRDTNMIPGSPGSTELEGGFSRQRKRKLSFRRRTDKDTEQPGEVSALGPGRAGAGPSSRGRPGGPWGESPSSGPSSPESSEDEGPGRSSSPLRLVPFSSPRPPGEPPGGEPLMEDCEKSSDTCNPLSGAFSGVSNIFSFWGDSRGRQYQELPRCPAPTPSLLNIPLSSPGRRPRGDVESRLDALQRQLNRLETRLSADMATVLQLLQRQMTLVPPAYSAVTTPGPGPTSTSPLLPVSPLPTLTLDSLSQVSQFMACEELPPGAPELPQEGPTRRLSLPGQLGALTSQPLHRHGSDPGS
T1 sequence (Q9UQD0 whole entry): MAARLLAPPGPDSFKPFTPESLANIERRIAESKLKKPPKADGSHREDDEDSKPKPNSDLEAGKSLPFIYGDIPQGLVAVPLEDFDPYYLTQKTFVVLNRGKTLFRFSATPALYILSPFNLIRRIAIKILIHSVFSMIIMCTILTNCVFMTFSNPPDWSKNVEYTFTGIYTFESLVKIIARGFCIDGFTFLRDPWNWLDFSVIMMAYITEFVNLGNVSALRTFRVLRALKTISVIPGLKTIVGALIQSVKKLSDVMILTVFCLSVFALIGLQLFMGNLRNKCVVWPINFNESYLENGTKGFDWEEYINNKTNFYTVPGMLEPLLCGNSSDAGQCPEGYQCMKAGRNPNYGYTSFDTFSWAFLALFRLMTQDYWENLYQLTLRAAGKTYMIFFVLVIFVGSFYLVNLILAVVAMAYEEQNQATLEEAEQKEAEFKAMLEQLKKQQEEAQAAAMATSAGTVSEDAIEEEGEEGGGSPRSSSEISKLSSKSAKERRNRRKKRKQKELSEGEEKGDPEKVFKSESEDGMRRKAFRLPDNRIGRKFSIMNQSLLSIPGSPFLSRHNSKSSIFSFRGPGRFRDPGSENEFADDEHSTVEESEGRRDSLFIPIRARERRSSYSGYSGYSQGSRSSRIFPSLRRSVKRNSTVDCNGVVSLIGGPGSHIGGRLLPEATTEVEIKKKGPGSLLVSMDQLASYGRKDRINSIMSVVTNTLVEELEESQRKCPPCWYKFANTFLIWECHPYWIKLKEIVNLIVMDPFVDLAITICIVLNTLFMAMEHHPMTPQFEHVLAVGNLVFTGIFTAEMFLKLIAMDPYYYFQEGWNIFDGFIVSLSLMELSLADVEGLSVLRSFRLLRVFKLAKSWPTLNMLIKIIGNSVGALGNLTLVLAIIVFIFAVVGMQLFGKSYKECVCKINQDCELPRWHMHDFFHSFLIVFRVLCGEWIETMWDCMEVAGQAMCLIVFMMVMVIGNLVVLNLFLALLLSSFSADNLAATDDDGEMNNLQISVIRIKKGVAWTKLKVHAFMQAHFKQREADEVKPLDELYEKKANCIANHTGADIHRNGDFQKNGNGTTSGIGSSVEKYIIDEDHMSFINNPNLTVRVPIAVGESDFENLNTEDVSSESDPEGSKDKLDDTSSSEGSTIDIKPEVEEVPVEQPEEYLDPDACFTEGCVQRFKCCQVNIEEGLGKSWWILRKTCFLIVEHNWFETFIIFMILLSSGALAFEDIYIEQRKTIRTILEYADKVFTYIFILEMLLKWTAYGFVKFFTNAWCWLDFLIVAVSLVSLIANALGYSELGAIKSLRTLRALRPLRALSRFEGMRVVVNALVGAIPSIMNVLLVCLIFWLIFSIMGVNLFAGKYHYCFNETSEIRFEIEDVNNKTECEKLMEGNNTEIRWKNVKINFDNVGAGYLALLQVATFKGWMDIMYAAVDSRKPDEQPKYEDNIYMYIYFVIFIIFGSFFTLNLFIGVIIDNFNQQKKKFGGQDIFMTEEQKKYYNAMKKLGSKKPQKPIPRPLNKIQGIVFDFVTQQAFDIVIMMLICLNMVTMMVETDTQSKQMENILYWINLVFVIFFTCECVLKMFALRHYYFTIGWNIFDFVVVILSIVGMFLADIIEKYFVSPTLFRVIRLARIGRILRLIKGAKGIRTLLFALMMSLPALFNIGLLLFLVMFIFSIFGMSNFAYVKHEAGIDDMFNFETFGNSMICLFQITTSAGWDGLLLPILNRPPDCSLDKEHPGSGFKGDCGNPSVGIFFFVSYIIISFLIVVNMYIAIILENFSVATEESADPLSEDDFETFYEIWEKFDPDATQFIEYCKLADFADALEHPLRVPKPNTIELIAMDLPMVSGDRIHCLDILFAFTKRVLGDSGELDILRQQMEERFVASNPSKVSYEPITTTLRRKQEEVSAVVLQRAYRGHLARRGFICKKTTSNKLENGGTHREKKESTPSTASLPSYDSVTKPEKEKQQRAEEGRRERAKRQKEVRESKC

With `CSCC[C@@H]1NC(=O)[C@H](Cc2ccc(O)cc2)NC(=O)[C@H](CCCNC(=N)N)NC(=O)[C@@H](NC(=O)[C@@H](N)CC(=O)O)CSSC[C@@H]2NC(=O)[C@@H]3CSSC[C@@H](C(=O)N[C@@H](C)C(=O)N[C@@H](Cc4c[nH]c5ccccc45)C(=O)N[C@@H](CC(=O)O)C(=O)N[C@@H](Cc4ccccc4)C(=O)N[C@H](C(=O)N[C@@H](Cc4ccccc4)C(=O)N[C@H](C(=O)O)[C@@H](C)O)[C@@H](C)O)NC(=O)[C@H](Cc4ccc(O)cc4)NC(=O)[C@H](CCCCN)NC(=O)[C@H](CCSC)NC(=O)[C@H](CCCCN)NC(=O)[C@H](CCCNC(=N)N)NC(=O)[C@H](CCCCN)NC(=O)[C@H](CSSC[C@H](NC(=O)[C@H](CC(=O)O)NC(=O)CNC(=O)[C@H](Cc4ccccc4)NC1=O)C(=O)N[C@@H](CCC(=O)O)C(=O)N[C@@H](CCCCN)C(=O)N[C@@H](CC(=O)O)C(=O)N[C@@H](CCC(=O)O)C(=O)N[C@@H](CC(=O)O)C(=O)N3)NC(=O)CNC(=O)[C@H](CC(C)C)NC(=O)[C@H](Cc1cnc[nH]1)NC(=O)[C@H](CCCCN)NC2=O` [Pnc1a] the “mechanical threshold of the injured paw compared to vehicle” value ([1]; intraperitoneal 3 mg/kg) was “significantly increased”, the “mechanical threshold of the injured paw compared to vehicle” value ([1]; intraplantar 3 μM) was “significantly increased” and the “time after which no intact peptide remained” value ([2]; PBS pH 6.5, 100 μM) was 12 days. For the same compound, the “time after which no intact peptide remained” value ([2]; PBS/saline pH 5.7, 100 μM) was 25 days, the “stability over the 25 day period” value ([2]; bicarbonate buffered saline pH 5.7, 100 μM) was “remained intact” and the “stability over the 25 day period” value ([2]; bicarbonate buffered saline pH 7.1, 100 μM) was “remained intact”. The “stability over the 25 day period” value ([2]; saline pH 3, 100 μM) was “remained intact”, the “pIC50 Nav1.6” value (hNav1.6) was 6.89±0.1 M and the “effect on hERG peak tail current” value (hERG) was “did not have a significant effect”. For the same compound, the “hERG peak tail current” value (hERG; control 539±13 pA) was 504±38 pA.
